According to ChEMBL document CHEMBL4425147, “Preparation, biological evaluation and molecular docking study of imidazolyl dihydropyrimidines as potential Mycobacterium tuberculosis dihydrofolate reductase inhibitors” (Bioorg Med Chem Lett, 2016):
In brackets after ≈: the same amount, converted by molar mass.

How the values were obtained:
[1] = test system: Mycobacterium tuberculosis; assay: Antitubercular activity against Mycobacterium tuberculosis H37Rv ATCC 27294 at 6.25 ug/ml by MABA; type: functional
Vero = assay: Cytotoxicity against African green monkey Vero cells assessed as reduction in cell viability after 72 hrs by MTT assay; type: cell-based; conditions: Chlorocebus sabaeus
[2] = test system: Mycobacterium tuberculosis; assay: Antitubercular activity against Mycobacterium tuberculosis H37Rv ATCC 27294 by MABA; type: functional
[3] = Selectivity ratio of IC50 for African green monkey Vero cells to MIC for Mycobacterium tuberculosis H37Rv ATCC 27294; type: toxicity; conditions: read-out: Selectivity Index
[4] = Ratio of EC90 for Mycobacterium tuberculosis Erdman infected in mouse bone marrow macrophage monolayers to MIC for Mycobacterium tuberculosis H37Rv ATCC 27294; type: functional
[5] = test system: Mycobacterium tuberculosis; assay: Bacteriostatic activity against Mycobacterium tuberculosis Erdman infected in mouse bone marrow macrophage monolayers assessed as reduction in colony forming units at 4 fold MIC concentration after 7 days; type: functional; conditions: Erdman = ATCC 35801, 168 h
[6] = test system: Mycobacterium tuberculosis; assay: Bactericidal activity against Mycobacterium tuberculosis Erdman infected in mouse bone marrow macrophage monolayers assessed as reduction in colony forming units at 4 fold MIC concentration after 7 days; type: functional; conditions: Erdman = ATCC 35801, 168 h

Row | Structure (SMILES) | inhibition at 6.25 µg/mL [1] | IC50 (Vero) | MIC90 [2] | selectivity ratio [3] | Ratio [4] | EC90 [5] | EC99 [6]
1 | CCCCc1nc(Cl)c(C2NC(=O)NC(C)=C2C(=O)Nc2ccccc2OC)[nH]1 (stereo not given) | 79% | – | – | – | – | – | –
2 | CCCCc1nc(Cl)c(C2NC(=O)NC(C)=C2C(=O)Nc2ccc(OC)cc2)[nH]1 (stereo not given) | 89% | – | – | – | – | – | –
3 | CCCCc1nc(Cl)c(C2NC(=O)NC(C)=C2C(=O)Nc2ccccc2Cl)[nH]1 (stereo not given) | 92% | 7.6 µg/mL (≈ 18 µM) | 1.56 µg/mL (≈ 3.69 µM) | 4.87 | – | – | –
4 | CCCCc1nc(Cl)c(C2NC(=O)NC(C)=C2C(=O)Nc2ccc(C)cc2)[nH]1 (stereo not given) | 72% | – | – | – | – | – | –
5 | CCCCc1nc(Cl)c(C2NC(=O)NC(C)=C2C(=O)Nc2cccc(F)c2)[nH]1 (stereo not given) | 85% | – | – | – | – | – | –
6 | CCCCc1nc(Cl)c(C2NC(=O)NC(C)=C2C(=O)Nc2ccc(Cl)cc2)[nH]1 (stereo not given) | 97% | 9.4 µg/mL (≈ 22.3 µM) | 0.39 µg/mL (≈ 0.923 µM) | 24.1 | 0.26 | 0.102 µg/mL (≈ 0.242 µM) | 0.69 µg/mL
7 | CCCCc1nc(Cl)c(C2NC(=O)NC(C)=C2C(=O)Nc2ccccc2C)[nH]1 (stereo not given) | 63% | – | – | – | – | – | –
8 | CCCCc1nc(Cl)c(C2NC(=O)NC(C)=C2C(=O)Nc2cccc([N+](=O)[O-])c2)[nH]1 (stereo not given) | 76% | – | – | – | – | – | –
9 | CCCCc1nc(Cl)c(C2NC(=O)NC(C)=C2C(=O)Nc2cccc(C)c2)[nH]1 (stereo not given) | 65% | – | – | – | – | – | –
10 | CCCCc1nc(Cl)c(C2NC(=O)NC(C)=C2C(=O)Nc2ccccc2F)[nH]1 (stereo not given) | 90% | > 10 µg/mL | 3.12 µg/mL (≈ 7.69 µM) | > 3.12 | – | – | –
11 | CCCCc1nc(Cl)c(C2NC(=O)NC(C)=C2C(=O)Nc2ccc([N+](=O)[O-])cc2)[nH]1 (stereo not given) | 98% | > 10 µg/mL | 0.78 µg/mL (≈ 1.8 µM) | > 12.8 | 0.09 | 0.074 µg/mL (≈ 0.171 µM) | 0.59 µg/mL
12 | CCCCc1nc(Cl)c(C2NC(=O)NC(C)=C2C(=O)Nc2ccccc2[N+](=O)[O-])[nH]1 (stereo not given) | 82% | – | – | – | – | – | –
13 | CCCCc1nc(Cl)c(C2NC(=O)NC(C)=C2C(=O)Nc2ccccc2)[nH]1 (stereo not given) | 59% | – | – | – | – | – | –
14 | CCCCc1nc(Cl)c(C2NC(=O)NC(C)=C2C(=O)Nc2cccc(OC)c2)[nH]1 (stereo not given) | 72% | – | – | – | – | – | –
15 | NNC(=O)c1ccncc1 [ISONIAZID] | – | – | 0.03 to 0.06 µg/mL (≈ 0.219 to 0.438 µM) | > 40000 | 1 | 0.03 µg/mL (≈ 0.219 µM) | 0.42 µg/mL
16 | CCCCc1nc(Cl)c(C2NC(=O)NC(C)=C2C(=O)Nc2cccc(Cl)c2)[nH]1 (stereo not given) | 89% | – | – | – | – | – | –
17 | CCCCc1nc(Cl)c(C2NC(=O)NC(C)=C2C(=O)Nc2ccc(F)cc2)[nH]1 (stereo not given) | 99% | > 10 µg/mL | 0.39 µg/mL (≈ 0.961 µM) | > 25.6 | 0.1 | 0.039 µg/mL (≈ 0.0961 µM) | 0.54 µg/mL
